The values below come from BindingDB's records for doi:10.3109/14756366.2010.482047 (Academy of Sciences of The Czech Republic, 2011).

Each structure is given as a SMILES string.

This assay deals with T1, Cytosol aminopeptidase [33-68,L62W] (Sus scrofa, UniProt P28839, L62W).
T1 construct: 33-68
T1 sequence (P28839 33-68 L62W): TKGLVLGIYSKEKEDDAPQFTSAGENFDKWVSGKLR
Briefly: Kinetic Inhibition Assay. To be noted: pH 8.4; 25 °C. The procedure: LAP was assayed in 75 mM triethanolamine hydrochloride buffer (pH = 8.4, containing 5 mM MgCl2) at 25°C. The substrate (L-leucine-p-nitroanilide) was dissolved in DMSO and added to the assay buffer followed by the enzyme. The hydrolysis of the substrate was monitored by the change in absorbance measured at 405 nm. All the inhibitor solutions were prepared in the assay buffer. The assay solution, which contained 0.05 mL of the substrate solution (0.2, 0.4, 0.6, 0.8, 1 mM final concentrations), 0.25 mL of an inhibitor solution (concentration dependent on the inhibitor), the enzyme solution (20 μg/ml final concentration) and adjusted to a 1 mL final volume.
`CCCCC(N)P(=O)(O)O[C@@H](C)C(=O)OC` (stereo partly drawn) [Nle-ψ[P(O)(OH)O]-L-AlaOMe (7)]: affinity was put at a Ki of 219 µM.

Take `CCCCC(N)P(=O)(O)O[C@@H](C)C(=O)O` (stereo partly drawn) [Nle-ψ[P(O)(OH)O]-L-Ala (6)]: the Ki is 269 µM. This Ki and that of the molecule before are within 1.5-fold of each other.

The molecule `CSCCC(N)P(=O)(O)CC(C)C(=O)O` (configuration not stated) [Met-ψ[P(O)(OH)CH2]-Ala (5)] yielded a Ki of 3.64 µM.

Turning to `CSCC[C@H](N)[P@H](=O)O` [Met-PH (2)], the Ki was found to be 22 µM.

In turn, `CSCC[C@H](N)P(=O)(O)O` [Met-P (1)] returned an inhibition constant (Ki) of 22.6 µM.

`CCCC[C@H](N)P(=O)(O)O` [1-aminopentylphosphonic acid] registered a Ki of 58 µM. Against the preceding molecule, the Ki is about 2.6-fold higher.

Regarding `CCCCC(N)[PH](=O)O` (configuration not stated) [Nle-PH (4)], the Ki was determined as 73.9 µM.
